Data published in doi:10.1101/2020.04.16.044321v1 (biorxiv, 2020).

Target: hemopexin (Homo sapiens, UniProt P02790)
Experiment: biochemical

Sequence of hemopexin (P02790 24-462): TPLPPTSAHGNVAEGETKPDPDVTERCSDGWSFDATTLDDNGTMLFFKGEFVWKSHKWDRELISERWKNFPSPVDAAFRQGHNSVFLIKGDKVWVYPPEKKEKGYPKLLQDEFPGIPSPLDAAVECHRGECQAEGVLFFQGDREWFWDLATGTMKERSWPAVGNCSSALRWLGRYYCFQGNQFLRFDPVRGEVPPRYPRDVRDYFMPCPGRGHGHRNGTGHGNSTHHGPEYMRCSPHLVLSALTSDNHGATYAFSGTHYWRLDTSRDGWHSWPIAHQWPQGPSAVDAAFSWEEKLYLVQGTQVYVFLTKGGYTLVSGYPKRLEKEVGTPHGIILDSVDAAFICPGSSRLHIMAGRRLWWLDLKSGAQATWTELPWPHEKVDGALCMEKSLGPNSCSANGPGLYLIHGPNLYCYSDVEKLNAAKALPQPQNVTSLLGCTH

- Kd: 0.32 ± 0.04 nM
SMILES: C=CC1=C(C)C2=Cc3c(C=C)c(C)c4[n]3[Fe+][n]3c(c(C)c(CCC(=O)O)c3=CC3=NC(=C4)C(C)=C3CCC(=O)O)=CC1=N2 [heme]
